Assay results published in ChEMBL document CHEMBL1129417, “Glucose transport-enhancing and hypoglycemic activity of 2-methyl-2-phenoxy-3-phenylpropanoic acids” (1996).
Values joined by “and” are separate entries in the source; they are usually repeats but may differ in a detail not shown here. Identical values can stand only once.

What was measured:
Assay type in all cases: functional
[1] = system: 3T3-L1; test: Acute effects in vitro by measuring 2-deoxyglucose (2DG) uptake in vehicle treated 3T3-L1 adipocytes at 10 uM dose.
[2] = system: 3T3-L1; test: Acute effects in vitro by measuring 2-deoxyglucose (2DG) uptake in vehicle treated 3T3-L1 adipocytes at 30 uM dose.
[3] = system: Mus musculus; test: In vivo hypoglycemic activity expressed as glucose lowering relative to positive control in 6-8 week old C57BL/6J ob/ob mouse at 10 mg/kg
[4] = system: 3T3-L1; test: In vitro by measurements of 2-Deoxyglucose (2DG) uptake in vehicle treated 3T3-L1 adipocytes at 3 uM dose.
[5] = species on record: Rattus norvegicus; test: Inhibition of gluconeogenesis in rat
[6] = system: 3T3-L1; test: In vitro measurements of 2-Deoxyglucose (2DG) uptake in vehicle treated 3T3-L1 adipocytes at 60 uM dose.
[7] = system: Mus musculus; test: In vivo hypoglycemic activity expressed as glucose lowering relative to positive control in 6-8 week old C57BL/6J ob/ob mouse at 1 mg/kg.
[8] = system: Mus musculus; test: In vivo hypoglycemic activity expressed as glucose lowering relative to positive control in 6-8 week old C57BL/6J ob/ob mouse at 5 mg/kg.
[9] = Rattus norvegicus, read-out: ED50

SMILES | Basal uptake [1] | Basal uptake [2] | Hypoglycemic activity [3] | Basal uptake [4] | ED50 [5, 9] | Basal uptake [6] | Hypoglycemic activity [7] | Hypoglycemic activity [8] | Hypoglycemic activity ([3]; 10 mg/kg) | ED50 [5]
CC(Cc1ccc(Cl)cc1)(Oc1ccc(Br)cc1)C(=O)O (configuration not stated) | 109% | 134% | 22% | 120% | < 1 mg/kg |  |  |  |  | 
CC(C)c1ccc(OC(C(=O)[O-])C(C)c2ccc(Cl)cc2)cc1.[Na+] (configuration not stated) |  |  | 41% |  | > 10 mg/kg | 98% |  |  |  | 
CCc1ccc(CC(C)(Oc2ccc(Oc3ccccc3)cc2)C(=O)O)cc1 (configuration not stated) |  |  | 130% |  | 1 mg/kg |  | 48% | 113% |  | 
COc1ccc(Cc2ccc(OC(C)(Cc3ccc(Cl)cc3)C(=O)[O-])cc2)cc1.[Na+] (configuration not stated) |  |  | 74% |  | < 10 mg/kg |  |  |  |  | 
CC(C)c1ccc(OC(C)(COP(=O)([O-])[O-])Cc2ccc(Cl)cc2)cc1.[Ca+2] (configuration not stated) |  |  | 50% |  | > 10 mg/kg |  |  |  |  | 
COc1ccc(S(=O)(=O)NC(=O)C(C)(Oc2ccc(C(C)C)cc2)C(C)c2ccc(Cl)cc2)cc1 (configuration not stated) | 113% | 162% | 16% | 130% | > 10 mg/kg |  |  |  |  | 
CCCc1ccc(CC(C)(Oc2ccc(C(C)C)cc2)C(=O)NS(=O)(=O)C(F)(F)F)cc1 (configuration not stated) |  |  | 35% |  | > 10 mg/kg |  |  |  |  | 
COc1ccccc1CC(Oc1ccc(C(C)C)cc1)C(=O)O (configuration not stated) |  |  | <0% |  | > 10 mg/kg | 78% |  |  |  | 
CC(C)c1ccc(OC(C)(C(=O)O)C(C)c2ccc(Cl)cc2)cc1 (stereo in doubt; 85) | 128% | 131% |  |  |  | 209% |  |  | 46% | >10 mg/kg
CC(Cc1ccc(Cl)cc1)(Oc1ccccc1Cc1ccc(Cl)cc1)C(=O)[O-].[Na+] (configuration not stated) | 88% | 97% and 100% | 52% |  | 10 mg/kg |  |  |  |  | 
CC(C)c1ccc(OC(C)(Cc2ccc(C(C)(C)C)cc2)C(=O)O)cc1 (configuration not stated) | 104% | 213% and 103% | 102% |  | 5 mg/kg |  | 41% | 47% |  | 
COc1ccc(CC(C)(Oc2ccc(C(C)C)cc2)C(=O)O)cc1 (configuration not stated) |  |  | 41% |  | > 10 mg/kg |  |  |  |  | 
COc1ccc(S(=O)(=O)NC(=O)C(C)(Cc2ccc(Cl)cc2)Oc2ccc(C(C)C)cc2)cc1 (configuration not stated) | 101% | 154% | 22% |  | > 10 mg/kg | 67% |  |  |  | 
CCc1ccc(CC(C)(Oc2ccc(Cc3ccccc3)cc2)C(=O)[O-])cc1.[Na+] (configuration not stated) |  |  | 107% |  | 1 mg/kg |  | 44% | 104% |  | 
CC(Cc1ccc(Cl)cc1)(Oc1ccc(Cc2ccc(Cl)cc2)cc1)C(=O)[O-].[Na+] (configuration not stated) | 94% | 112% and 90% | <0% |  | > 10 mg/kg |  |  |  |  | 
Cc1ccccc1S(=O)(=O)NC(=O)C(C)(Cc1ccc(Cl)cc1)Oc1ccc(C(C)C)cc1 (configuration not stated) | 251% | 232% and 126% | <0% |  | > 10 mg/kg |  |  |  |  | 
CC(Cc1ccc(Cl)cc1)(Oc1ccc(Oc2ccccc2)cc1)C(=O)O (configuration not stated) |  |  | 108% |  | < 1 mg/kg |  | 60% | 100% |  | 
CC(C)c1ccc(OC(C(=O)O)C(C)c2ccc(Cl)cc2)cc1 (configuration not stated) |  |  | 17% |  | > 10 mg/kg | 111% |  |  |  | 
CC(C)c1ccc(OC(C)(Cc2ccc(Cl)cc2)C(=N)NO)cc1 (configuration not stated) |  |  | 27% |  | > 10 mg/kg |  |  |  |  | 
CC(Cc1ccc(Cl)cc1)(Oc1ccc(C2CCSCC2)cc1)C(=O)[O-].[Na+] (configuration not stated) |  |  | 64% |  | < 10 mg/kg | 108% |  |  |  | 

SMILES | Basal uptake [1] | Basal uptake [2] | Hypoglycemic activity [3] | Basal uptake [4] | ED50 [5, 9] | Basal uptake [6] | Hypoglycemic activity [7] | Hypoglycemic activity [8] | Hypoglycemic activity ([3]; 10 mg/kg) | ED50 [5]
Cc1cc(C)c(CC(C)(Oc2ccc(C(C)C)cc2)C(=O)[O-])c(C)c1.[Na+] (configuration not stated) | 148% | 106% | 77% |  | < 10 mg/kg | 173% |  |  |  | 
CC(C)c1ccc(OC(C)(Cc2ccc(Cl)cc2)C(=O)CO)cc1 (configuration not stated) |  |  | 32% |  | > 10 mg/kg |  |  |  |  | 
CCc1ccccc1CC(C)(Oc1ccc(C(C)C)cc1)C(=O)[O-].[Na+] (configuration not stated) |  |  | 95% |  | 5 mg/kg |  | 32% | 53% |  | 
CC(C)c1ccc(OC(C)(Cc2ccc(Cl)cc2)c2nnn[nH]2)cc1 (configuration not stated) | 105% | 159% and 105% | <0% |  | 10 mg/kg |  |  |  |  | 
CCc1ccc(CC(C)(Oc2ccc(C(C)C)cc2)C(=O)NS(=O)(=O)C(F)(F)F)cc1 (configuration not stated) |  |  | 27% |  | > 10 mg/kg |  |  |  |  | 
CC(C)c1ccc(OC(C)(Cc2ccc(Cl)cc2)C(=O)NS(C)(=O)=O)cc1 (configuration not stated) | 100% | 255% |  |  | 5 mg/kg | 200% |  | 0% | 96% and 100% | 
COc1ccc(Cl)cc1C(=O)NCCc1ccc(CC(C)(Oc2ccc(C(C)C)cc2)C(=O)O)cc1 (configuration not stated) |  |  | 24% |  | > 10 mg/kg |  |  |  |  | 
CC(C)c1ccc(OC(C)(Cc2ccc3c(c2)CCCC3)C(=O)[O-])cc1.[Na+] (configuration not stated) |  |  | 99% |  | < 5 mg/kg |  |  | 75% |  | 
CC(C)c1ccc(OC(C)(Cc2ccc3ccccc3c2)C(=O)O)cc1 (configuration not stated) |  |  | 46% |  | > 10 mg/kg |  |  |  |  | 
CCc1cccc(CC(C)(Oc2ccc(C3CCSc4ccccc43)cc2)C(=O)[O-])c1.[Na+] (configuration not stated) | 113% |  | 35% | 116% and 104% | > 10 mg/kg |  |  |  |  | 
CC(Cc1ccc(Cl)cc1)(Oc1ccc(Cc2ccccc2)cc1)C(=O)[O-].[Na+] (configuration not stated) |  | 109% | 96% |  | 1 mg/kg | 214% | 44% | 100% |  | 
CC(C)c1ccc(OC(C)(Cc2ccc(Cl)cc2)C(=O)/N=C(\N)NO)cc1 (configuration not stated) |  |  | 49% |  | 10 mg/kg |  | <0% | 44% |  | 
CC(C)c1ccc(OC(C)(C(=O)O)C2CCc3cc(Cl)ccc32)cc1 (stereo in doubt; 101) | 86% | 85% |  | 71% |  |  |  |  | 35% | >10 mg/kg
CCCc1ccc(CC(C)(Oc2ccc(Cc3ccccc3)cc2)C(=O)[O-])cc1.[Na+] (configuration not stated) |  |  | 96% |  | 1 mg/kg |  | 24% | 91% |  | 
COc1ccccc1CC(C)(Oc1ccc(C(C)C)cc1)C(=O)O (configuration not stated) | 100% | 122% | <0% |  | > 10 mg/kg | 120% |  |  |  | 
CC(C)c1ccc(OC(C)(CO)Cc2ccc(Cl)cc2)cc1 (configuration not stated) | 121% | 118% | <0% | 118% | 10 mg/kg |  |  |  |  | 
CC(C)c1ccc(OC(C)(Cc2ccc(Cl)c(Cl)c2)C(=O)O)cc1 (configuration not stated) |  |  | 111% |  | 5 mg/kg |  | 0% | 24% |  | 
CCCCc1cccc(CC(C)(Oc2ccc(C(C)C)cc2)C(=O)[O-])c1.[Na+] (configuration not stated) | 129% | 113% | 91% |  | 1 mg/kg |  | <0% | 85% |  | 
CC(C)C1CCC(OC(C)(Cc2ccc(Cl)cc2)C(=O)[O-])CC1.[Na+] (configuration not stated) |  |  | <0% |  | > 10 mg/kg |  |  |  |  | 
